Read-outs that look alike come from different tables or passages of the source.
Tests used:
Hsp70 = assay: Induction of Hsp70 in SKBr3 cells as marker of Hsp90 inhibition; type: cell-based, human; details: SKBr3 cells continuously exposed to 1 μM test compound
Description: The activity of macrolactams of this invention as Hsp90 inhibitors was confirmed by monitoring the effect of exposure to them on an Hsp90 client protein and a protein induced upon Hsp90 inhibition. […]. The procedure used was that described in Munster et al., Cancer Research 2002, 62, 3132-3137.
[…]. Heat shock protein-70 (“Hsp70”), another protein that performs a chaperone function, is a protein that is induced upon inhibition of Hsp90 (Brodsky & Chiosis, Curr. Topics Med. Chem. 2006, 6 (11), 1215-1225). Thus, the induction of Hsp70 can be used as a marker for the inhibition of Hsp90. […]. GAPDH is an enzyme involved in glycolysis and is expressed constitutively in all cells and is a marker of choice as a loading control in Western Blotting experiments.)

MDA-468 = assay: cells; details: read-out: Inhibitory Concentration IC50, NQO1 deficient cancer cells
Description: (§1) The ability of the macrolactams of this invention to inhibit the growth of cancer cells was evaluated using the procedure of Patel, supra. […] SKOV3 is a human ovarian cancer cell line. […] MV-4-11 is yet another human leukemia cell line (acute myeloid leukemia or AML). […] Where an assay was performed multiple times, the range of values measured is given.
(§2) As noted above, geldanamycin derivatives in the quinone oxidation state are dependent on the enzyme NQO1 to reduce them to their hydroquinone derivatives for enhanced activity as Hsp90 inhibitors. However, some cancer cells are deficient in NQO1 activity and thus unable to effect the quinone-to-hydroquinone conversion.

SKBr3 = assay: cells; details: Homo sapiens
Description: as §1

MCF-7 = assay: cells; details: Homo sapiens
Description: as §1

K-562 = assay: cells; details: Homo sapiens, K562, read-out: Inhibitory activity against cancer cells IC50
Description: as §1

NCI-ADR = assay: cells; details: Homo sapiens, NCI/ADR-RES, read-out: Inhibitory activity against cancer cells IC50
Description: as §1

MX-1 = assay: cells; details: Homo sapiens, MX1, read-out: Inhibitory activity against cancer cells IC50
Description: as §1

BT-474 = assay: cells; details: Homo sapiens, BT-474, read-out: Inhibitory activity against cancer cells IC50
Description: as §1

RPMI-8226 = assay: cells; details: Homo sapiens, RPMI-8226, read-out: Inhibitory activity against cancer cells IC50
Description: as §1

SKOV3 = assay: cells; details: Homo sapiens, SK-OV-3, read-out: Inhibitory activity against cancer cells IC50
Description: as §1

[1] = system: SKBr3 and MCF7 cancer cells; details: with versus without dicoumarol (NQO1 inhibitor)
NCI-H596 = assay: cells; details: Homo sapiens, NCI-H596, read-out: Inhibitory Concentration IC50, NQO1 deficient cancer cells
Description: as §1, §2

HCT-116 = assay: cells; details: Homo sapiens, HCT-116, read-out: Inhibitory activity against cancer cells IC50
Description: as §1

MV-4-11 = assay: cells; details: Homo sapiens, MV4-11, read-out: Inhibitory activity against cancer cells IC50
Description: as §1

HT-29 = assay: cells; details: Homo sapiens, HT-29, read-out: Inhibitory activity against cancer cells IC50
Description: as §1

COLO 205 = assay: cells; details: Homo sapiens, COLO 205, read-out: Inhibitory activity against cancer cells IC50
Description: as §1

[2] = SK-BR-3, read-out: Inhibitory Activity IC50, no dicoumarol added
[3] = SK-BR-3, read-out: Inhibitory activity against cancer cells IC50
[4] = MCF7, read-out: Inhibitory activity against cancer cells IC50

| Structure (SMILES) | Induction of Hsp70, gel picture FIG. 5 (Hsp70) | IC50 (MDA-468) | IC50 (SKBr3; [2]) | IC50 (SKBr3; [3]) | IC50 (MCF-7; [4]) | IC50 (K-562) | IC50 (NCI-ADR) | IC50 (MX-1) | IC50 (BT-474) | IC50 (RPMI-8226) | IC50 (SKOV3) | Change of Hsp90 inhibitory activity in the presence of dicoumarol [1] | IC50 (NCI-H596) | IC50 (SKBr3; SK-BR-3, read-out: Inhibitory Activity IC50, dicoumarol added) | IC50 (HCT-116) | IC50 (MCF-7; MCF7, read-out: Inhibitory Activity IC50, dicoumarol added) | IC50 (MCF-7; MCF7, read-out: Inhibitory Activity IC50, no dicoumarol added) | IC50 (MV-4-11) | IC50 (HT-29) | IC50 (COLO 205) |
| --- | --- | --- | --- | --- | --- | --- | --- | --- | --- | --- | --- | --- | --- | --- | --- | --- | --- | --- | --- | --- |
| C=CCNC1=C2C[C@@H](C)C[C@H](OC)[C@H](O)[C@@H](C)/C=C(\C)[C@H](OC(N)=O)[C@@H](OC)/C=C\C=C(/C)C(=O)NC(=CC1=O)C2=O [Compound 17-AAG, 17-allylamino-17-demethoxygeldanamycin, reference compound] | Hsp70 was induced |  |  |  |  |  |  |  |  |  |  |  |  |  |  |  |  |  |  |  |
| CO[C@H]1C[C@H](C)Cc2cc(cc(Cl)c2O)NC(=O)/C(C)=C/CC[C@H](OC)[C@@H](OC(N)=O)/C(C)=C/[C@H](C)[C@H]1O [III-a] | Hsp70 was induced | 90 nM | 39 nM | 36 to 145 nM | 53 to 60 nM | 74 nM | 640 to 1400 nM | 42 nM | 57 nM | 42 nM | 102 to 170 nM | remained substantially unchanged |  |  |  |  |  |  |  |  |
| COC1CC/C=C(\C)C(=O)Nc2cc(F)c(O)c(c2)C[C@@H](C)C[C@H](OC)[C@H](O)[C@@H](C)/C=C(\C)[C@@H]1OC(N)=O (stereo partly drawn) [III-d] | Hsp70 was induced | 100 nM | 42 nM | 34 to 80 nM | 73 to 160 nM | 290 nM | 3200 to 5000 nM | 66 nM | 80 nM | 66 nM | 230 to 237 nM | remained substantially unchanged | 310 nM | 69 nM | 280 to 290 nM | 161 nM | 112 nM | 31 to 32 nM | 110 nM | 38 nM |
| CO[C@H]1C[C@H](C)Cc2cccc(c2)NC(=O)/C(C)=C/CC[C@H](OC)[C@@H](OC(N)=O)/C(C)=C/[C@H](C)[C@H]1O [III-h] |  |  |  | 90 to 110 nM | 138 to 140 nM |  |  |  |  |  | 318 nM |  |  |  | 240 to 242 nM |  |  |  | 220 nM | 180 nM |
| CO[C@H]1C[C@H](C)Cc2cc(ccc2O)NC(=O)/C(C)=C/CC[C@H](OC)[C@@H](OC(N)=O)/C(C)=C/[C@H](C)[C@H]1O [III-i] |  |  |  | 830 nM | 600 nM |  |  |  |  |  |  |  |  |  | 1100 nM |  |  |  |  |  |
| CO[C@H]1/C=C\C=C(/C)C(=O)Nc2ccc(O)c(c2)C[C@@H](C)C[C@H](OC)[C@H](O)[C@@H](C)/C=C(\C)[C@@H]1OC(N)=O [IV-a] |  |  |  | 90 nM |  |  |  |  |  |  |  |  |  |  | 177 nM |  |  |  |  |  |
| CO[C@H]1/C=C\C=C(/C)C(=O)Nc2cc(Cl)c(O)c(c2O)C[C@@H](C)C[C@H](OC)[C@H](O)[C@@H](C)/C=C(\C)[C@@H]1OC(N)=O [IV-b] |  | 450 nM |  | 400 to 444 nM |  | 1400 nM | 10000 nM | 440 nM | 140 nM | 240 nM | 340 to 360 nM |  | 815 nM |  | 840 nM |  |  |  |  |  |

From patent US7855192B2, “Macrolactams by engineered biosynthesis” (Kosan Biosciences, Inc., priority 2007, dated 2010)
